Source: paper PMC6478789, “A chemical toolbox for the study of bromodomains and epigenetic signaling” (Nature Communications, 2019)
Numbering of substitutions follows the chain as printed. Where two headings read alike, the source gives them in different places.

Experiments:
EP300 [1] = molecular target: EP300 (Homo sapiens, UniProt Q09472); test: Histone acetyltransferase (HAT) activity assay; format: biochemical; conditions: read-out: HATs Activity (%);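 further: selectivity screen of bromodomain probe compounds against histone acetyltransferases, with enzyme activity given in percent for compounds tested at 1 and 10 µM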
HAT1 = molecular target: T1, HAT1 (Homo sapiens, UniProt O14929); test: Histone acetyltransferase (HAT) activity assay; format: biochemical; conditions: read-out: HATs Activity (%);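 further: HAT selectivity screen of BRD probe compounds, enzyme activity in % measured with compound at 1 µM and 10 µM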
T1 sequence (O14929 1-419): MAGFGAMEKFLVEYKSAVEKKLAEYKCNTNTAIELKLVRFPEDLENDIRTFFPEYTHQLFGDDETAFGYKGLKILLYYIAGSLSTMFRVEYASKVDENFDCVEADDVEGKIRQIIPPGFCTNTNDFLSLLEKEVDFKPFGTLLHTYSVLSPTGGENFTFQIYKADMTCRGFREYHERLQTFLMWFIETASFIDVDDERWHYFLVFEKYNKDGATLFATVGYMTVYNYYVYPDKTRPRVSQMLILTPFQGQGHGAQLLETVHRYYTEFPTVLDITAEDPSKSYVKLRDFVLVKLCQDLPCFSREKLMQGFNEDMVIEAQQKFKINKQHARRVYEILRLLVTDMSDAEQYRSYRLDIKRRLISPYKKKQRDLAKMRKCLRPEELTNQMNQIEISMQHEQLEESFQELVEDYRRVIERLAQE

MYST1 = molecular target: T2, MYST1 (Homo sapiens, UniProt Q9H7Z6); test: Histone acetyltransferase (HAT) activity assay; format: biochemical; conditions: read-out: HATs Activity (%);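 further: selectivity screen across a panel of histone acetyltransferases, with compounds tested at 1 and 10 µM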
T2 sequence (Q9H7Z6 1-458): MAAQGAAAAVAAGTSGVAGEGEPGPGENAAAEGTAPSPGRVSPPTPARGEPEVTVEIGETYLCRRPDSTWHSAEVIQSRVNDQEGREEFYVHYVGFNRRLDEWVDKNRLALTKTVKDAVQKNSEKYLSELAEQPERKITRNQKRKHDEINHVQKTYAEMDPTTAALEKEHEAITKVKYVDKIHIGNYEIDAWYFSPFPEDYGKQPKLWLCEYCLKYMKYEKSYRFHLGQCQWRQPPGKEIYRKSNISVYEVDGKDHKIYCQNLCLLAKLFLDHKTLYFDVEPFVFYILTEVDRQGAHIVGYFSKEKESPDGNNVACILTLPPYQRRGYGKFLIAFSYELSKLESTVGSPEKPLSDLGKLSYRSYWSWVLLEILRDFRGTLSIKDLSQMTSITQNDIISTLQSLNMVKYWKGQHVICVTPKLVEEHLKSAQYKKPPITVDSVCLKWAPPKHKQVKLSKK

MYST3 = MYST3 (Homo sapiens, UniProt Q92794); test: Histone acetyltransferase (HAT) activity assay; format: biochemical; conditions: read-out: HATs Activity (%);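 further: selectivity screen of bromodomain probe compounds across a panel of histone acetyltransferases, read out as enzyme activity in %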
GCN5L2 = GCN5L2 (Homo sapiens, UniProt Q92830); test: Histone acetyltransferase (HAT) activity assay; format: biochemical; conditions: read-out: HATs Activity (%);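 further: selectivity screen of BRD probe compounds across a panel of histone acetyltransferases, HAT activity in % with compound at 1 or 10 µM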
ATAD2A = molecular target: T3, ATAD2A (Homo sapiens, UniProt Q6PL18); test: BROMOscan ligand-binding assay
T3 sequence (Q6PL18 980-1092 limits assumed): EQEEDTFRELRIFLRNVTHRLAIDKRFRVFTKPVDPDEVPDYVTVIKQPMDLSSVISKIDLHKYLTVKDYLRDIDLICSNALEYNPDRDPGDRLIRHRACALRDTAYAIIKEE
Source text: (§1) BROMOscan is a binding assay based on the well-known KINOMEscan technology. This assay measures the binding of a DNA-tagged bromodomain to an immobilized BRD ligand. If an inhibitor is present, it will compete with the bromodomain binding to the immobilized ligand, resulting in reduction of a quantitative PCR (qPCR) signal in a dose-dependent manner.

ATAD2B = molecular target: T4, ATAD2B (Homo sapiens, UniProt Q9ULI0); test: BROMOscan ligand-binding assay
T4 sequence (Q9ULI0 951-1066 limits assumed): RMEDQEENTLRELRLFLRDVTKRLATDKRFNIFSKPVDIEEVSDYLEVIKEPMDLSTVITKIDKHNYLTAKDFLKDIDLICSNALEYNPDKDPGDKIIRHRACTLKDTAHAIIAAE
Source text: as §1

BAZ2A = molecular target: T5, BAZ2A (Homo sapiens, UniProt Q9UIF9); test: BROMOscan ligand-binding assay; conditions: BROMOscan Gene Symbol BAZ2A
T5 sequence (Q9UIF9 1793-1897 limits assumed): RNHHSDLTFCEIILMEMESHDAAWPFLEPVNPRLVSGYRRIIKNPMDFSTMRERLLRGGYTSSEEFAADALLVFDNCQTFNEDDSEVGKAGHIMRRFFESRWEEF
Source text: as §1

BAZ2B = molecular target: T6, BAZ2B (Homo sapiens, UniProt Q9UIF8); test: BROMOscan ligand-binding assay
T6 sequence (Q9UIF8 2060-2164 limits assumed): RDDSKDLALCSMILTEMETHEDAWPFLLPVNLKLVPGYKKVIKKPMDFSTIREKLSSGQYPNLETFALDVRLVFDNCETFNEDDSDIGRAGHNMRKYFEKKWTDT
Source text: as §1

BRD1 = molecular target: T7, BRD1 (Homo sapiens, UniProt O95696); test: BROMOscan ligand-binding assay; conditions: BROMOscan Gene Symbol BRD1
T7 sequence (O95696 562-666 limits assumed): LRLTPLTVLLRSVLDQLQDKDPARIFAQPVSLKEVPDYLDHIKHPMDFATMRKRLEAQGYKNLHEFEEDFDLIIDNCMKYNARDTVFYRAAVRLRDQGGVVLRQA
Source text: as §1

BRD2(1) = BRD2(1) (Homo sapiens, UniProt P25440); test: BROMOscan ligand-binding assay; conditions: BROMOscan Gene Symbol BRD2(1)
Source text: as §1

BRD2(2) = BRD2(2) (Homo sapiens, UniProt P25440); test: BROMOscan ligand-binding assay; conditions: BROMOscan Gene Symbol BRD2(2)
Source text: as §1

BRD3(1) = BRD3(1) (Homo sapiens, UniProt Q15059); test: BROMOscan ligand-binding assay; conditions: BROMOscan Gene Symbol BRD3(1)
Source text: as §1

BRD3(2) = BRD3(2) (Homo sapiens, UniProt Q15059); test: BROMOscan ligand-binding assay; conditions: BROMOscan Gene Symbol BRD3(2)
Source text: as §1

BRD9 = molecular target: T8, BRD9 (Homo sapiens, UniProt Q9H8M2); test: BROMOscan ligand-binding assay; conditions: BROMOscan Gene Symbol BRD9
T8 sequence (Q9H8M2 136-240 limits assumed): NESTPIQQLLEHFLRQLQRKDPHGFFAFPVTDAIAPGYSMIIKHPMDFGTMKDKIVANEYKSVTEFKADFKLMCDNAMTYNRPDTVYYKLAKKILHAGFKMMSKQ
Source text: as §1

BRDT(1) = BRDT(1) (Homo sapiens, UniProt Q58F21); test: BROMOscan ligand-binding assay; conditions: BROMOscan Gene Symbol BRDT(1)
Source text: as §1

BRDT(2) = BRDT(2) (Homo sapiens, UniProt Q58F21); test: BROMOscan ligand-binding assay; conditions: BROMOscan Gene Symbol BRDT(2)
Source text: as §1

BRPF1 = molecular target: T9, BRPF1 (Homo sapiens, UniProt P55201); test: BROMOscan ligand-binding assay; conditions: BROMOscan Gene Symbol BRPF1
T9 sequence (P55201 628-732 limits assumed): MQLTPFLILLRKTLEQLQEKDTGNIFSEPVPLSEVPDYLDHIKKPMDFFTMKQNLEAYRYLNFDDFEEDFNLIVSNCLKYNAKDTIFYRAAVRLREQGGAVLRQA
Source text: as §1

BRPF3 = molecular target: T10, BRPF3 (Homo sapiens, UniProt Q9ULD4); test: BROMOscan ligand-binding assay
T10 sequence (Q9ULD4 589-693 limits assumed): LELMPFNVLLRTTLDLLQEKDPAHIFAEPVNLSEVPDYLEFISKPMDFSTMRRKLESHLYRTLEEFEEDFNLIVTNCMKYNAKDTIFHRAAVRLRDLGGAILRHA
Source text: as §1

EP300 [2] = molecular target: T11, EP300 (Homo sapiens, UniProt Q09472); test: BROMOscan ligand-binding assay; conditions: BROMOscan Gene Symbol EP300
T11 sequence (Q09472 1049-1156 limits assumed): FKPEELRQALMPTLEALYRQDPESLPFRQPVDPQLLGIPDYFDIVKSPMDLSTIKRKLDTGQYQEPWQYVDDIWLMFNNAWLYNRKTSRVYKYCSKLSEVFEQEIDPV
Source text: as §1

FALZ = FALZ (Homo sapiens, UniProt Q12830); test: BROMOscan ligand-binding assay
Source text: as §1

PBRM1(2) = PBRM1(2) (Homo sapiens, UniProt Q86U86); test: BROMOscan ligand-binding assay; conditions: BROMOscan Gene Symbol PBRM1(2)
Source text: as §1

TAF1(2) = molecular target: T12, TAF1(2) (Homo sapiens, UniProt P21675); test: BROMOscan ligand-binding assay; conditions: BROMOscan Gene Symbol TAF1(2)
T12 sequence (P21675 1519-1628 limits assumed): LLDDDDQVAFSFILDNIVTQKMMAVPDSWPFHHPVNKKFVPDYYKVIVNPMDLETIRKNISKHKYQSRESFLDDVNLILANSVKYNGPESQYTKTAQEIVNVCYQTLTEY
Source text: as §1

TAF1L(2) = molecular target: T13, TAF1L(2) (Homo sapiens, UniProt Q8IZX4); test: BROMOscan ligand-binding assay; conditions: BROMOscan Gene Symbol TAF1L(2)
T13 sequence (Q8IZX4 1517-1626 limits assumed): T12 sequence (P21675 1519-1628 limits assumed) with V46M, M51V, V102I, L107I
Source text: as §1

TRIM24(PHD,BRD) = molecular target: T14, TRIM24(PHD,BRD) (Homo sapiens, UniProt O15164); test: BROMOscan ligand-binding assay; conditions: BROMOscan Gene Symbol TRIM24(PHD,Bromo.)
T14 sequence (O15164 824-1006 limits assumed): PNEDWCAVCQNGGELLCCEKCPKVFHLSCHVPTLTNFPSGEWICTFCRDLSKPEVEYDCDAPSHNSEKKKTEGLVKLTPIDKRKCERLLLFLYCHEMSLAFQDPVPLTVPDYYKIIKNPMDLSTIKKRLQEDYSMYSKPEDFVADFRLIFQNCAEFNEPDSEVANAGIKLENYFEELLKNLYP
Source text: as §1

TRIM33(PHD,BRD) = molecular target: T15, TRIM33(PHD,BRD) (Homo sapiens, UniProt Q9UPN9); test: BROMOscan ligand-binding assay
T15 sequence (Q9UPN9 882-1087 limits assumed): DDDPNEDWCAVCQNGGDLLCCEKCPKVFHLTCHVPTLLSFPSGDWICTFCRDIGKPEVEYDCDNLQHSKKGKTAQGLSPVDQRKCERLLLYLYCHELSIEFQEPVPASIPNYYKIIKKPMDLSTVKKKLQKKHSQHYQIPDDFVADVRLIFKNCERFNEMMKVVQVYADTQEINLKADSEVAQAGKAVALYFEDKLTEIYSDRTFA
Source text: as §1

WDR9(2) = WDR9(2) (Homo sapiens, UniProt Q9NSI6); test: BROMOscan ligand-binding assay; conditions: BROMOscan Gene Symbol WDR9(2)
Source text: as §1

[3] = read-out: KD (BROMOscan), sheet prints no unit (nM)

Chain of GCN5L2 (Q92830 whole entry, species assumed): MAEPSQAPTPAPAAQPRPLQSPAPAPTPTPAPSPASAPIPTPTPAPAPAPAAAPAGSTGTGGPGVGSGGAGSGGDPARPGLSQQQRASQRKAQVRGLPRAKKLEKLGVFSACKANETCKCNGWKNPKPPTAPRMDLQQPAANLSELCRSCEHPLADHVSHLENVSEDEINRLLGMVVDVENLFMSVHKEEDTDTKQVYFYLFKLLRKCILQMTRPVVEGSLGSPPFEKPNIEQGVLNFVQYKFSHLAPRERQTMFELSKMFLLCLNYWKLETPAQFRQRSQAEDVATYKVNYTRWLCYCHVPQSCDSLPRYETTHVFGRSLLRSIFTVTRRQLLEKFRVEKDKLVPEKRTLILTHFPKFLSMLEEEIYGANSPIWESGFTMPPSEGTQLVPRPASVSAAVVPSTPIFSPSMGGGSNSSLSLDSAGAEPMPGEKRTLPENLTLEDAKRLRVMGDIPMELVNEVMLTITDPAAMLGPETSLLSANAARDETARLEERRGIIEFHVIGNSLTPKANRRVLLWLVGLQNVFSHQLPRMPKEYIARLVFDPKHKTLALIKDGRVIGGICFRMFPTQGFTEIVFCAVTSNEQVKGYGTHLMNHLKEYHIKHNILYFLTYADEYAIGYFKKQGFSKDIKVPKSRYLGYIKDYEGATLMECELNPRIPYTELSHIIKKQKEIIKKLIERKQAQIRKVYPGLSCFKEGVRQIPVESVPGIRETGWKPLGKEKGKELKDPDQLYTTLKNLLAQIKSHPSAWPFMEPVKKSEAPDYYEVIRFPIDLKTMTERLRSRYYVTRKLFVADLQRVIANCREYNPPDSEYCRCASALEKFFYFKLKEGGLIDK
Chain of MYST3 (Q92794 whole entry, species assumed): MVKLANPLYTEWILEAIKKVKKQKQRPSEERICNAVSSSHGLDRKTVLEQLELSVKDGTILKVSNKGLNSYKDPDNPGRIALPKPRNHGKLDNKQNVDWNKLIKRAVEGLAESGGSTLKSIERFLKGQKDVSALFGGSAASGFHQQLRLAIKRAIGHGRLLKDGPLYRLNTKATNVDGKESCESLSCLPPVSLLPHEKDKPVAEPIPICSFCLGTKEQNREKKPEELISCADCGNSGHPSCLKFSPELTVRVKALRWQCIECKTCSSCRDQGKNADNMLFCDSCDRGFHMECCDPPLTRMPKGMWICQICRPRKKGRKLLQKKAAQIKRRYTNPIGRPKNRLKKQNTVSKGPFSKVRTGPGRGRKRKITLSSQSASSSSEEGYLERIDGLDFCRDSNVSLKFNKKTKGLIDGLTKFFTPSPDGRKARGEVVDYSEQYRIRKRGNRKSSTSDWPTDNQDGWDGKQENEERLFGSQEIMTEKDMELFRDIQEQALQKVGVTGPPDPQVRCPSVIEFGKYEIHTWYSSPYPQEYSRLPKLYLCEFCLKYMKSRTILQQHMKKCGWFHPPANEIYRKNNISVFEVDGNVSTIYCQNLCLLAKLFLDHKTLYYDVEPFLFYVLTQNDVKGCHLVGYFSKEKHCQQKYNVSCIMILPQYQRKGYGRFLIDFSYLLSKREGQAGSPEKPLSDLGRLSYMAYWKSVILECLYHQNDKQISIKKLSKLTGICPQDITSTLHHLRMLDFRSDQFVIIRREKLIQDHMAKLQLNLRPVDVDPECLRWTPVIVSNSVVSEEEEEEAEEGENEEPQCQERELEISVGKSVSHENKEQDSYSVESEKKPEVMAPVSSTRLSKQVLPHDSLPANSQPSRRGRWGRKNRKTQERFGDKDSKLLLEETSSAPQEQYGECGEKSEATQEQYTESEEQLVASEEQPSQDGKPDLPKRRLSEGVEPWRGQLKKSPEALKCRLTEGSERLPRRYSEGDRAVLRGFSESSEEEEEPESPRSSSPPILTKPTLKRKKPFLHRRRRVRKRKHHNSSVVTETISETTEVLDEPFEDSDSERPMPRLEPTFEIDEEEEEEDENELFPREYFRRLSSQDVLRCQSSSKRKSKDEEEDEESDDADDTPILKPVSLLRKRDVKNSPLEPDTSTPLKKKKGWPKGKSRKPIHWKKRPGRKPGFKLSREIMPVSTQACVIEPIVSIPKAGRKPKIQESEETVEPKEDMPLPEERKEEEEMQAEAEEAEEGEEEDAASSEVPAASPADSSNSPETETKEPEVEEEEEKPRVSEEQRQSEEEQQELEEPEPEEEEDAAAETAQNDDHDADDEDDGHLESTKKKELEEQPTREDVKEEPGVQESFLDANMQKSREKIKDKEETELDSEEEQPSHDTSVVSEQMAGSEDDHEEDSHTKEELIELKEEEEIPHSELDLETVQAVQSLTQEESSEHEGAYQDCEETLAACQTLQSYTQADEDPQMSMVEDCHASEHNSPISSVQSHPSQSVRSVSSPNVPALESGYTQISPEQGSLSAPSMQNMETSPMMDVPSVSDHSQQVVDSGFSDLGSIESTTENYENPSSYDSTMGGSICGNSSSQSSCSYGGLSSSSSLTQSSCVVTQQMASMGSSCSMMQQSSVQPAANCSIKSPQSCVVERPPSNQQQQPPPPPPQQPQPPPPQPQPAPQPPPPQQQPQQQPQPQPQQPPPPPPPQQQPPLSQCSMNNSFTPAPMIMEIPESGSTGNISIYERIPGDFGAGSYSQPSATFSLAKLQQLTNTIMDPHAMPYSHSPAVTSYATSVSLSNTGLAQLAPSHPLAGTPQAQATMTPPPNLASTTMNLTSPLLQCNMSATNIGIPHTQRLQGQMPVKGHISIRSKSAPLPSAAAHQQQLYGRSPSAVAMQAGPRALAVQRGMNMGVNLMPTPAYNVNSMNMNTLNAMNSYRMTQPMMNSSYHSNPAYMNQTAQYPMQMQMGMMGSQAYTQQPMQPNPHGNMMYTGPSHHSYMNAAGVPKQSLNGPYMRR
Chain of BRD2(1) (P25440 74-180 limits assumed): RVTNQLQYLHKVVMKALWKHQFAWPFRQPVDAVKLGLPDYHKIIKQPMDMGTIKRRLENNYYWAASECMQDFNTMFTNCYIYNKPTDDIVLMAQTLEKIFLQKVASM
Chain of BRD3(1) (Q15059 34-140 limits assumed): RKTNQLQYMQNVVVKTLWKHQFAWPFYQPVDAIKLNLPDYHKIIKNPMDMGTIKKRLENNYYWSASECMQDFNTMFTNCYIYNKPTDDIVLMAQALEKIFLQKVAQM
Chain of BRD2(2) (P25440 344-453 limits assumed): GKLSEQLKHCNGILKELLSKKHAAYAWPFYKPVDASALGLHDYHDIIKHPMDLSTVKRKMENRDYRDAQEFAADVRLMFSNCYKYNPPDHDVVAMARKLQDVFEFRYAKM
Chain of WDR9(2) (Q9NSI6 1313-1418 limits assumed): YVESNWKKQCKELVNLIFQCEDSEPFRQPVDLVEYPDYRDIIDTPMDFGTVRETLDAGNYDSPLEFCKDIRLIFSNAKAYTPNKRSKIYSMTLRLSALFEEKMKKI
Chain of BRD3(2) (Q15059 306-415 limits assumed): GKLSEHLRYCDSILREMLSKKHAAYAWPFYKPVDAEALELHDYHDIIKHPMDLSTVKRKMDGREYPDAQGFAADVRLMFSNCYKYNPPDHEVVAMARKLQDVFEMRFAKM
Chain of PBRM1(2) (Q86U86 177-287 limits assumed): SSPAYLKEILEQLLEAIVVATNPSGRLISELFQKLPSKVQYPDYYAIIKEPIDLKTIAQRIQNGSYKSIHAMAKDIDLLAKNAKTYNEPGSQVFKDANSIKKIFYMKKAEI

## COc1cc(-c2cn(C)c(=O)c3cnccc23)c(OC)cc1CN(C)C [BI-9564]
EP300 [1]
  activity at 1 µM: 99%
  activity at 10 µM: 94%
HAT1
  activity at 1 µM: 99%
  activity at 10 µM: 96%
MYST1
  activity at 1 µM: 106%
  activity at 10 µM: 101%
MYST3
  activity at 1 µM: 99%
  activity at 10 µM: 100%
GCN5L2
  activity at 1 µM: 102%
  activity at 10 µM: 100%

## COc1ccc(CCc2nc3cc(-c4c(C)noc4C)ccc3n2CCN2CCOCC2)cc1 [CBP30-383]
ATAD2A; BROMOscan Gene Symbol ATAD2A
  Kd: > 150000 nM
ATAD2A; [3]
  Kd: > 30000 nM
ATAD2B; BROMOscan Gene Symbol ATAD2B
  Kd: > 50000 nM
ATAD2B; [3]
  Kd: > 30000 nM
BAZ2A
  Kd: 75 µM
BAZ2B; BROMOscan Gene Symbol BAZ2B
  Kd: > 50000 nM
BAZ2B; [3]
  Kd: > 30000 nM
BRD1
  Kd: 47 µM
BRD2(1)
  Kd: 1.5 µM
BRD2(2)
  Kd: 3.6 µM
BRD3(1)
  Kd: 1.4 µM
BRD3(2)
  Kd: 4.6 µM
BRD9
  Kd: 10 µM
BRDT(1)
  Kd: 3.6 µM
BRDT(2)
  Kd: 18 µM
BRPF1
  Kd: 11 µM
BRPF3; BROMOscan Gene Symbol BRPF3
  Kd: > 50000 nM
BRPF3; [3]
  Kd: > 30000 nM
EP300 [2]
  Kd: 0.044 µM
FALZ; BROMOscan Gene Symbol FALZ
  Kd: > 50000 nM
FALZ; [3]
  Kd: > 30000 nM
PBRM1(2)
  Kd: 44 µM
TAF1(2)
  Kd: 1.6 µM
TAF1L(2)
  Kd: 14 µM
TRIM24(PHD,BRD)
  Kd: 26 µM
TRIM33(PHD,BRD); BROMOscan Gene Symbol TRIM33(PHD,Bromo.)
  Kd: > 50000 nM
TRIM33(PHD,BRD); [3]
  Kd: > 30000 nM
WDR9(2)
  Kd: 41 µM

## CC(=O)c1cc(-c2cc(C(=O)NC3CC3)ccc2C)c2ncccn12 [TP-472]
EP300 [1]
  activity at 1 µM: 95%
  activity at 10 µM: 96%
HAT1
  activity at 1 µM: 98%
  activity at 10 µM: 97%
MYST1
  activity at 1 µM: 100%
  activity at 10 µM: 103%
MYST3
  activity at 1 µM: 99%
  activity at 10 µM: 98%
GCN5L2
  activity at 1 µM: 94%
  activity at 10 µM: 92%
